These results are taken from patent publication US20160176867A1, “MODIFIED BET-PROTEIN-INHIBITING DIHYDROQUINOXALINONES AND DIHYDROPYRIDOPYRAZINONES” (BAYER PHARMA AKTIENGESELLSCHAFT, priority 2013, published 2016).

The target in test [1] is T1, BRD4 bromo domain 1 [BRD4(1)] (Homo sapiens, UniProt O60885).
T1 construct: N-terminally His6-tagged BRD4(1) (amino acids 67-152); made in house; host or cells: E. coli
As to the kind of experiment: BRD4/acetylated peptide H4 binding assay (TR-FRET), BRD4 bromo domain 1. As to conditions: inhibition of BRD4(1)/Ac-H4 peptide interaction. The method in brief: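 TR-FRET (665/620 nm ratio) measuring displacement of biotinylated tetra-acetylated H4 peptide from His6-BRD4(1) (aa 67-152, E. coli; typically 10 nM) at pH 7.5. Compound (11 concentrations, 0.1 nM–20 μM, duplicates) was preincubated 10 min at 22°C, then 1 h at 22°C and ≥3 h at 4°C; IC50 from 4-parameter fit normalized to DMSO and no-BRD4 controls.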
In general terms: In TR-FRET formats the signal depends on donor and acceptor labels being close together.

The target in test [2] is T2, BRD4 bromo domain 2 [BRD4(2)] (Homo sapiens, UniProt O60885).
T2 construct: N-terminally His6-tagged BRD4(2) (amino acids 357-445); made in house; host or cells: E. coli
As to the kind of experiment: BRD4/acetylated peptide H4 binding assay (TR-FRET), BRD4 bromo domain 2. As to conditions: inhibition of BRD4(2)/Ac-H4 peptide interaction. In a few lines: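 IC50 comes from a 4-parameter fit over 0.1 nM–20 μM in duplicate, normalised to DMSO and no-protein controls. TR-FRET (Eu-streptavidin/anti-His-XL665) tracks His-tagged BRD4(2) 357-445 at 100 nM binding Ac-H4 peptide in HEPES pH 7.5 buffer. Incubation was 1 h at 22 °C, then at 4 °C ≥3 h up to overnight.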

As to `C[C@@H]1C(=O)N(C)c2ccc(Nc3cccc(C(=O)N(C)C)c3)cc2N1Cc1ccccc1` [Example 107, 3-{[(3R)-4-benzyl-1,3-dimethyl-2-oxo-1,2,3,4-tetrahydroquinoxalin-6-yl]amino}-N,N-dimethylbenzamide], the IC50 – broadly, the midpoint of a concentration-inhibition curve – in test [1] was determined as 385 nM; in test [2], 117 nM.

`C[C@@H]1C(=O)N(C)c2ccc(Nc3cccc(C(=O)N[C@H]4CC[C@H](N5CCN(CC6CC6)CC5)CC4)c3)cc2N1C1CCOCC1` [Example 108, N-{trans-4-[4-(cyclopropylmethyl)piperazin-1-yl]cyclohexyl}-3-{[(3R)-1,3-dimethyl-2-oxo-4-(tetrahydro-2H-pyran-4-yl)-1,2,3,4-tetrahydroquinoxalin-6-yl]amino}benzamide]: the results for the IC50 in test [1] and in test [2] were 575 nM and 520 nM, respectively.

Turning to `C[C@@H]1C(=O)N(C)c2ccc(Nc3cccc(C(=O)NC4CCN(C)CC4)c3)cc2N1C1CCOCC1` [Example 109, 3-{[(3R)-1,3-dimethyl-2-oxo-4-(tetrahydro-2H-pyran-4-yl)-1,2,3,4-tetrahydroquinoxalin-6-yl]amino}-N-(1-methylpiperidin-4-yl)benzamide], the IC50 in test [1] was determined as 521 nM; in test [2], 1120 nM.

For `CC1C(=O)N(C)c2ccc(N(C)c3cccc(S(=O)(=O)N(C)C)c3)cc2N1Cc1ccccc1` (stereo not drawn) [Example 110, 3-[(4-benzyl-1,3-dimethyl-2-oxo-1,2,3,4-tetrahydroquinoxalin-6-yl)(methyl)amino]-N,N-dimethylbenzenesulphon-amide], the IC50 in test [1] worked out at 1290 nM; in test [2] it was 320 nM.

As to `C[C@@H]1C(=O)N(C)c2ccc(Nc3cccc(S(=O)(=O)NCCN(C)C)c3)nc2N1C1CCNCC1` [Example 128, N-[2-(dimethylamino)ethyl]-3-{[(3R)-1,3-dimethyl-2-oxo-4-(piperidin-4-yl)-1,2,3,4-tetrahydropyrido[2,3-b]pyrazin-6-yl]amino}-benzenesulphonamide], the half-maximal inhibitory concentration (IC50) stood at 66 nM in test [1] and 137 nM in test [2].

For the molecule `C[C@@H]1C(=O)N(C)c2ccc(Nc3cccc(C(=O)N4CCN(C)CC4)c3)nc2N1C1CCNCC1` [Example 130, (3R)-1,3-dimethyl-6-({3-[(4-methylpiperazin-1-yl)carbonyl]phenyl}amino)-4-(piperidin-4-yl)-3,4-dihydropyrido[2,3-b]pyrazin-2(1H)-one], the results for the IC50 in test [1] and in test [2] were 206 nM and 178 nM, respectively.
